Results: publication PMC12299174, “Design, Synthesis, and Evaluation of 1-Benzylpiperidine and 1-Benzoylpiperidine Derivatives as Dual-Target Inhibitors of Acetylcholinesterase and Serotonin Transporter for Alzheimer′s Disease” (Molecules, 2025)
Structures can show the parent of a compound that is named as a salt. Where two headings read alike, the source gives them in different places.

How the values were obtained:
h-SERT = biological target: T1, h-SERT (Homo sapiens, UniProt P31645); test: biochemical; format: binding; conditions: displacement of 2 nM [3H]-paroxetine, HEK293 membranes, Cheng-Prusoff
T1 construct: purchased Perkin-Elmer RBHSTM400UA; host or cells: HEK293 membranes
T1 sequence (P31645 whole entry): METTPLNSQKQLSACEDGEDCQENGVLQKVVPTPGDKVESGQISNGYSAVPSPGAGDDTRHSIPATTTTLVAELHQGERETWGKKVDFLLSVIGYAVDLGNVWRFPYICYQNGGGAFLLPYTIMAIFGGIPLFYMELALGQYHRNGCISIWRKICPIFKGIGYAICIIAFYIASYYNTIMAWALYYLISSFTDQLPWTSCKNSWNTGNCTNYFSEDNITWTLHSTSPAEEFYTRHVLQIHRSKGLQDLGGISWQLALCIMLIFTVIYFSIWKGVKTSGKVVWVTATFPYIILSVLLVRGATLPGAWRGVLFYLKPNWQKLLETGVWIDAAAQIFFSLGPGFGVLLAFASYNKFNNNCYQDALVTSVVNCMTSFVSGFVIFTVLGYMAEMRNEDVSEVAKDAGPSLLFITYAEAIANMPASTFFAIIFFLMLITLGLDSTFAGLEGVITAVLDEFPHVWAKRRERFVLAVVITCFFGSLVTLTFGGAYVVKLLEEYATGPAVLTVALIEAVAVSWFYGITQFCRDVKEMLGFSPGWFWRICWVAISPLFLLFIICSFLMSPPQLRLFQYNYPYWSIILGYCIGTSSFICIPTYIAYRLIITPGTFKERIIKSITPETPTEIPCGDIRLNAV
Procedure: Competitive binding studies were conducted on homogenized membranes prepared from the human clonal cell line HEK293 for h-SERT. […] The inhibitory activity on AChE or butyrylcholinesterase (BuChE), which has also been regarded as a relevant cholinesterase target in AD [23], was determined using the spectrophotometric method, as described by Ellman, modified from Mella (Section 3.3).
The cellular background HEK293 containing 400 µL of h-SERT (Code RBHSTM400UA, Perkin-Elmer, Santiago, Chile) was diluted in 12 Eppendorf tubes, containing a storage buffer solution of Tris-HCl 50 mM (pH 7.4), EDTA 0.5 mM, MgCl2 10 mM, and 10% sucrose, obtaining a final volume between 260 and 340 µL, which was finally stored at −80 °C [27]. […] Non-specific binding was determined using […] fluoxetine. After 30 min at 27 °C, the incubation was stopped by rapid filtration on a Whatman GF/C filter preabsorbed in 0.5% polyethylenimine (PEI), washed with cold working buffer solution, 3 × 3 mL, filtered, and scintillation liquid was added.

AChE = AChE (Homo sapiens, UniProt P22303); test: biochemical; conditions: means ± SD of three determinations, 30 min preincubation at 25 °C, pH 7.5
AChE, sequence (P22303 32-614): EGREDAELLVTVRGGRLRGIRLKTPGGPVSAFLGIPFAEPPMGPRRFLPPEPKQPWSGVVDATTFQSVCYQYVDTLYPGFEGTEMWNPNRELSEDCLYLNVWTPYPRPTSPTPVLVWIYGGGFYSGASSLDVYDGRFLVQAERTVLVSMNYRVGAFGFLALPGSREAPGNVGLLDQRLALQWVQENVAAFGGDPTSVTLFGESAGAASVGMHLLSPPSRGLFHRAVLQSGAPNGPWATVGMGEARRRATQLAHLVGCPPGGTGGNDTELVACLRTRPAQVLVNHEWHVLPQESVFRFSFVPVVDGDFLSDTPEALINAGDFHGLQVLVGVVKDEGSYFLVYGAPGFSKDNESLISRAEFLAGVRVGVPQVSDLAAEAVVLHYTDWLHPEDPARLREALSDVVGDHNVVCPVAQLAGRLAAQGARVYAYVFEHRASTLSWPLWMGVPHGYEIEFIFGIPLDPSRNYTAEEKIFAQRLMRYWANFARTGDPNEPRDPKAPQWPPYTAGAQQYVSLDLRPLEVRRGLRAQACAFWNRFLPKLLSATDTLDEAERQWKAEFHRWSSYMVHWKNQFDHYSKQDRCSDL

BuChE = BuChE (Homo sapiens, UniProt P06276); test: biochemical
BuChE, sequence (P06276 29-602): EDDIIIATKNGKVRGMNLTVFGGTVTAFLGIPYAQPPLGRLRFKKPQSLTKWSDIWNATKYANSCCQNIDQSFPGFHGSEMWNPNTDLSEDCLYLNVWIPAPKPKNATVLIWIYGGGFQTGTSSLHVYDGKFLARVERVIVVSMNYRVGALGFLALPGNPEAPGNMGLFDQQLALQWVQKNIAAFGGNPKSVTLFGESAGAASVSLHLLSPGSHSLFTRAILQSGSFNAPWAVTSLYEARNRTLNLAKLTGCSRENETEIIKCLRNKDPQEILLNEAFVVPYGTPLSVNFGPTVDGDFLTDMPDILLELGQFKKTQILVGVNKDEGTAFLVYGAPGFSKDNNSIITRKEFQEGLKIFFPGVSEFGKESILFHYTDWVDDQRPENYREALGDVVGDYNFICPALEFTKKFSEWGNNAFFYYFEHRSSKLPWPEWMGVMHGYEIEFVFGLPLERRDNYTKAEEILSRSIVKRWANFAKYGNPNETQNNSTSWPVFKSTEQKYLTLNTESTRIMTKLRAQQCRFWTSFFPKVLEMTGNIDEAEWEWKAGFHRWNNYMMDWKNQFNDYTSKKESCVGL

human AChE; h-AChE = conditions: read-out: IC50 in human AChE (h-AChE); ref [14],[15],[16]; cited from earlier work
[1] = means ± SD of three determinations, 30 min preincubation at 25 °C, pH 7.5, read-out: BuChE IC50

Work on `COc1cc2c(cc1OC)CN(CC1CCN(C(=O)c3cccc(Cl)c3)CC1)CC2` [Compound 14, (3-Chlorophenyl)(4-((6,7-dimethoxy-3,4-dihydroisoquinolin-2(1H)-yl)methyl)piperidin-1-yl)methanone] yielded a Ki (h-SERT) of 2.43 ± 0.24 µM, an IC50 (AChE; read-out: AChE IC50) greater than 500 µM and an IC50 (BuChE; [1]) greater than 500 µM.

In the case of `COc1cc2c(cc1OC)CN(C(=O)C1CCN(Cc3cccc(Cl)c3)CC1)CC2` [Compound 9, (1-(3-Chlorobenzyl)piperidin-4-yl)(6,7-dimethoxy-3,4-dihydroisoquinolin-2(1H)-yl)methanone], the Ki (h-SERT) is reported as greater than 100 µM, the IC50 (AChE; read-out: AChE IC50) is reported as 34.5 ± 1.97 µM and the IC50 (BuChE; [1]) is reported as 268 ± 13.8 µM.

In the case of `O=C(OCC1CCN(Cc2ccccc2)CC1)C(c1ccccc1)c1ccccc1` [Compound 21, (1-Benzylpiperidin-4-yl)methyl-2,2-diphenylacetate], the Ki (h-SERT) is reported as 25.5 ± 1.01 µM, the IC50 (AChE; read-out: AChE IC50) is reported as greater than 500 µM and the IC50 (BuChE; [1]) is reported as 6.16 ± 0.29 µM.

In the case of `O=C(Cc1ccccc1)OCC1CCN(Cc2ccccc2)CC1` [Compound 18, (1-Benzylpiperidin-4-yl)methyl-2-phenylacetate], the Ki (h-SERT) is reported as 27.1 ± 3.4 µM, the IC50 (AChE; AChE IC50 (µM)) is reported as 200 ± 8.61 µM and the IC50 (BuChE) is reported as 256 ± 5.03 µM.

For `O=C(Cc1ccc(Cl)cc1)OCC1CCN(Cc2ccccc2)CC1` [Compound 20, (1-Benzylpiperidin-4-yl)methyl-2-(4-chlorophenyl)acetate], the Ki (h-SERT) was greater than 100 µM, the IC50 (AChE; read-out: AChE IC50) was 259 ± 14.6 µM and the IC50 (BuChE; [1]) was greater than 500 µM.

In the case of `COc1ccc2c3c1O[C@H]1C[C@@H](O)C=C[C@@]31CCN(C)C2` [GAL, Galantamine hydrobromide], the IC50 (human AChE; h-AChE) is given as 18.6 µM.

Compound `COc1cc2c(cc1OC)CN(CC1CCN(C(=O)c3cccc(F)c3)CC1)CC2` [Compound 13, (4-((6,7-Dimethoxy-3,4-dihydroisoquinolin-2(1H)-yl)methyl)piperidin-1-yl)(3-fluorophenyl)methanone] has a Ki (h-SERT) of 1.91 ± 0.77 µM, an IC50 (AChE; read-out: AChE IC50) greater than 500 µM and an IC50 (BuChE; [1]) greater than 500 µM.

Work on `COc1cc2c(cc1OC)CN(C(=O)C1CCN(Cc3cccc(Br)c3)CC1)CC2` [Compound 10, (1-(3-Bromobenzyl)piperidin-4-yl)(6,7-dimethoxy-3,4-dihydroisoquinolin-2(1H)-yl)methanone] yielded a Ki (h-SERT) greater than 100 µM, an IC50 (AChE; read-out: AChE IC50) of 28.3 ± 0.87 µM and an IC50 (BuChE; [1]) of 426 ± 28.6 µM.

`COc1cc2c(cc1OC)CN(C(=O)C1CCN(Cc3cccc(F)c3)CC1)CC2` [Compound 8, (6,7-Dimethoxy-3,4-dihydroisoquinolin-2(1H)-yl)(1-(3-fluorobenzyl)piperidin-4-yl)methanone] showed a Ki (h-SERT) greater than 100 µM, an IC50 (AChE; read-out: AChE IC50) of 41.2 ± 3.17 µM and an IC50 (BuChE; [1]) greater than 500 µM.

In the case of `O=C(OCC1CCN(Cc2ccccc2)CC1)c1ccc2ccccc2c1` [Compound 22, (1-Benzylpiperidin-4-yl)methyl-2-naphthoate], the Ki (h-SERT) is reported as 26.9 ± 2.57 µM, the IC50 (AChE; read-out: AChE IC50) is reported as 61.7 ± 2.56 µM and the IC50 (BuChE; [1]) is reported as 59.3 ± 1.42 µM.

With `COc1cc2c(cc1OC)CN(C(=O)C1CCN(Cc3ccc(Cl)cc3Cl)CC1)CC2` [Compound 11, (1-(2,4-Dichlorobenzyl)piperidin-4-yl)(6,7-dimethoxy-3,4-dihydroisoquinolin-2(1H)-yl)methanone] the Ki (h-SERT) was greater than 100 µM, the IC50 (AChE; read-out: AChE IC50) was greater than 500 µM and the IC50 (BuChE; [1]) was greater than 500 µM.

`COc1cc2c(cc1OC)CN(CC1CCN(C(=O)c3ccccc3)CC1)CC2` [Compound 12, (4-((6,7-Dimethoxy-3,4-dihydroisoquinolin-2(1H)-yl)methyl)piperidin-1-yl)(phenyl)methanone] showed a Ki (h-SERT) of 2.62 ± 0.82 µM, an IC50 (AChE; read-out: AChE IC50) of 290 ± 10.9 µM and an IC50 (BuChE; [1]) greater than 500 µM.

For `COc1cc2c(cc1OC)CN(CC1CCN(C(=O)c3cccc(Br)c3)CC1)CC2` [Compound 15, (3-Bromophenyl)(4-((6,7-dimethoxy-3,4-dihydroisoquinolin-2(1H)-yl)methyl)piperidin-1-yl)methanone], the Ki (h-SERT) was 1.47 ± 0.73 µM, the IC50 (AChE; read-out: AChE IC50) was 242 ± 24.4 µM and the IC50 (BuChE; [1]) was greater than 500 µM.

For `COc1cc2c(cc1OC)CN(C(=O)C1CCN(Cc3ccccc3)CC1)CC2` [Compound 7, (1-Benzylpiperidin-4-yl)(6,7-dimethoxy-3,4-dihydroisoquinolin-2(1H)-yl)methanone], the Ki (h-SERT) was greater than 100 µM, the IC50 (AChE; read-out: AChE IC50) was 34.4 ± 0.51 µM and the IC50 (BuChE; [1]) was greater than 500 µM.

In the case of `O=C(Cc1ccc(F)cc1)OCC1CCN(Cc2ccccc2)CC1` [Compound 19, (1-Benzylpiperidin-4-yl)methyl-2-(4-fluorophenyl)acetate], the IC50 (AChE; read-out: AChE IC50) is reported as 5.1 ± 0.24 µM and the IC50 (BuChE; [1]) is reported as 26.8 ± 0.81 µM.

`COc1cccc(C(=O)N2CCC(CN3CCc4cc(OC)c(OC)cc4C3)CC2)c1` [Compound 16, (4-((6,7-Dimethoxy-3,4-dihydroisoquinolin-2(1H)-yl)methyl)piperidin-1-yl)(3-methoxyphenyl)methanone] showed a Ki (h-SERT) of 1.59 ± 0.58 µM, an IC50 (AChE; read-out: AChE IC50) of 439 ± 28 µM and an IC50 (BuChE; [1]) greater than 500 µM.
